Results: patent US9617229B2, “Phenylmorpholines and analogues thereof” (Research Triangle Institute, priority 2010, dated 2017)
Structures can show the parent of a compound that is named as a salt.

Columns and labels:
Format in all cases: biochemical
DAT = DAT (Rattus norvegicus, UniProt P23977); experiment: DA release assay (synaptosomes, [3H]MPP+); parameters: the supernatants were retained on ice (synaptosomal preparation); from tissue; host or cells: rat caudate synaptosomes
Procedure: (§1) Rat caudate (for DA release) or whole brain minus cerebellum and caudate (for NE and 5-HT release), was homogenized in ice-cold 10% sucrose containing 1 μM reserpine. Nomifensine (100 nM) and GBR12935 (100 nM) were added to the sucrose solution for [^3H]5-HT release experiments to block any potential [^3H]5-HT reuptake into NE and DA nerve terminals. For the DA release assay, 100 nM desipramine and 100 nM citalopram were added to block [^3H]MPP^+ uptake into NE and 5-HT nerves. For the NE release assay, 50 nM GBR12935 and 100 nM citalopram were added to block [^3H]MPP^+ uptake into DA and 5-HT nerves. After 12 strokes with a Potter-Elvehjem homogenizer, homogenates were centrifuged at 1000×g for 10 min at 0-4° C. and the supernatants were retained on ice (synaptosomal preparation).
(§2) After incubation to steady state, 850 μl of synaptosomes preloaded with [^3H]ligand were added to 12×75 mm polystyrene test tubes that contained 150 μl test drug in uptake buffer plus 1 mg/ml BSA. After 5 min (^3H]5-HT) or 30 min (NE and DA assays) the release reaction was terminated by dilution with 4 ml wash buffer (10 mM Tris-HCl pH 7.4 containing 0.9% NaCl at 25° C.) followed by rapid vacuum filtration over Whatman GF/B filters using a Brandel Harvester. The filters were rinsed twice with 4 ml wash buffer using the Brandel Harvester, and the retained tritium was counted by a Taurus liquid scintillation counter at 40% efficiency after an overnight extraction in 3 ml Cytoscint (ICN).
(§3) In substrate reversal experiments, statistical significance was determined using the Student's t-test.

NET = target: T1, NET (Rattus norvegicus, UniProt Q63380); experiment: NE release assay (synaptosomes, [3H]MPP+); conditions: for NE Rel (%): Table 4, % EC50 of release
T1 construct: the supernatants were retained on ice (synaptosomal preparation); from tissue; host or cells: rat whole brain minus cerebellum and caudate, synaptosomes
Procedure: as §1, §2, §3

SERT [1] = target: T2, SERT (Rattus norvegicus, UniProt P31652); experiment: 5-HT release assay (synaptosomes, [3H]5-HT); parameters: the supernatants were retained on ice (synaptosomal preparation); from tissue; host or cells: rat whole brain minus cerebellum and caudate, synaptosomes; conditions: Table 4; % EC50 of release
Procedure: as §1, §2, §3

SERT [2] = target: T2, SERT; experiment: 5HT uptake inhibition

T1 sequence (Q63380 1-617): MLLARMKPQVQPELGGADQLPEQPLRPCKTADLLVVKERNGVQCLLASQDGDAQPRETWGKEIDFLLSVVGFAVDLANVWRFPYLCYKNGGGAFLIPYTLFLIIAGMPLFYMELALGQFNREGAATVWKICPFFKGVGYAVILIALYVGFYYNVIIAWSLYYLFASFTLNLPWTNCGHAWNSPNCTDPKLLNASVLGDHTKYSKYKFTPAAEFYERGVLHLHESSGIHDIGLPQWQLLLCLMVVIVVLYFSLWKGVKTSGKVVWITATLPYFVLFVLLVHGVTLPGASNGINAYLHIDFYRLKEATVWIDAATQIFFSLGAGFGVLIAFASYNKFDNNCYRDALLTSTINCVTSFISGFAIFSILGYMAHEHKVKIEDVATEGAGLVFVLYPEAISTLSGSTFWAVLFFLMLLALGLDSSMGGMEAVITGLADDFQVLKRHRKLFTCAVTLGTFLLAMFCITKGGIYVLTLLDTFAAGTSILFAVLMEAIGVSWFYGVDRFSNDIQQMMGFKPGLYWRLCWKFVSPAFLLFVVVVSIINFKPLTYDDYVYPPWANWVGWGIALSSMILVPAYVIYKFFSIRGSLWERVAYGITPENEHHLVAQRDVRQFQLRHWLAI
T2 sequence (P31652 whole entry): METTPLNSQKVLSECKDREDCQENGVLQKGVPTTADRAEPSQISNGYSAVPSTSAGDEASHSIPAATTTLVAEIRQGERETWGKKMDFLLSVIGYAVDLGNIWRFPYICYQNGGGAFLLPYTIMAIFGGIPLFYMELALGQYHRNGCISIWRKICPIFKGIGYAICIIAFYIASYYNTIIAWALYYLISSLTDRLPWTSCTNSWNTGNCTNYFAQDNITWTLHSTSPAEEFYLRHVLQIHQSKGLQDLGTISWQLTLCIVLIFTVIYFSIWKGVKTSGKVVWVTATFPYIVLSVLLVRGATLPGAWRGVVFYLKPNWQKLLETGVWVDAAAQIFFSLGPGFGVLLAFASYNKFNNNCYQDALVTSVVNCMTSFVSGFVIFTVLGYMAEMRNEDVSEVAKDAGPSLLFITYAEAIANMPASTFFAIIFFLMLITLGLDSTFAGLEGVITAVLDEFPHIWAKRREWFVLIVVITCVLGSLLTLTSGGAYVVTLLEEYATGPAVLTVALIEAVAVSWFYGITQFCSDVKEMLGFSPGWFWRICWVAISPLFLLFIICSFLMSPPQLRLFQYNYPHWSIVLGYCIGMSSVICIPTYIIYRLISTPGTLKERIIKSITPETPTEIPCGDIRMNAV
DAT, sequence (P23977 whole entry): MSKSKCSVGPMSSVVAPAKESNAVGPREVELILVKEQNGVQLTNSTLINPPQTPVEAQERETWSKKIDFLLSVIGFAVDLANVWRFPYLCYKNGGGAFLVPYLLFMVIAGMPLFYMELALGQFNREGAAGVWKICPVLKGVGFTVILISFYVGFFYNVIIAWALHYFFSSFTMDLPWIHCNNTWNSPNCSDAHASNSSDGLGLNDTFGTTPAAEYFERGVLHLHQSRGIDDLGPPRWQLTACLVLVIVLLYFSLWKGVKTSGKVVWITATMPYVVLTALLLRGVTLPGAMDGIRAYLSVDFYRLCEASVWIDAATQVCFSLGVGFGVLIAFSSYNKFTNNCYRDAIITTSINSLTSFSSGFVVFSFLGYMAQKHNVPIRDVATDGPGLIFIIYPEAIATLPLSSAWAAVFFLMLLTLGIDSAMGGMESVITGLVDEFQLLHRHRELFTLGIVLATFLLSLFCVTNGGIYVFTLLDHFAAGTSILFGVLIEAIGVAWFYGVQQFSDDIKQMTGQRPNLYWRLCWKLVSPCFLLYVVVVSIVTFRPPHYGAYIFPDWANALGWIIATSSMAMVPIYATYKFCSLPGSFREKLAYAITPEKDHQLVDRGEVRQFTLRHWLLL

| Structure (SMILES) | DA Rel (%) (DAT; Table 4, % EC50 of release) | NE Rel (%) (NET) | 5HT Rel (%) (SERT [1]) | DA Rel (%) (DAT; Table 5) | also measured |
| --- | --- | --- | --- | --- | --- |
| Cc1ccc(C2OCCNC2C)cc1 (stereo not shown) [PAL 747, 3-Methyl-2-(4′-Tolyl)morpholine fumarate] | 91 | – | – | – | – |
| CC1NCCOC1c1ccc(F)cc1.CC1NCCOC1c1ccc(F)cc1.O=C(O)/C=C/C(=O)O (stereo not shown) [PAL 748, 3-Methyl-[(4′-Fluoro)-2-Phenyl]morpholine (0.5 fumarate)] | 98 | 93 | 94 | – | – |
| CC1NCCOC1c1ccc(Cl)cc1.CC1NCCOC1c1ccc(Cl)cc1.O=C(O)/C=C/C(=O)O (stereo not shown) [PAL 749, 3-Methyl-[(4′-Chloro)-2-Phenyl]morpholine (0.5 fumarate)] | 88 | 93 | 76 | – | – |
| COc1ccc(C2OCCNC2C)cc1.Cl (stereo not shown) [PAL 751, 3-Methyl-[(4′-Methoxy)-2-Phenyl]morpholine hydrochloride] | 50 | 84 | 64 | – | – |
| CC1NCCOC1c1ccc(C#N)cc1.CC1NCCOC1c1ccc(C#N)cc1.O=C(O)/C=C/C(=O)O (stereo not shown) [PAL 772, 3-Methyl-[(4′-Cyano)-2-Phenyl]morpholine (0.5 fumarate)] | 0 | 100 | 53 | – | – |
| Cc1cccc(C2OCCNC2C)c1.Cc1cccc(C2OCCNC2C)c1.O=C(O)/C=C/C(=O)O (stereo not shown) [PAL 773, 3-Methyl-2-(3′-Tolyl)morpholine (0.5 fumarate)] | 98 | 80 | 82 | – | – |
| CC1NCCOC1c1cccc(O)c1.Cl (stereo not shown) [PAL 780, 3-Methyl-[(3′-Hydroxy)-2-Phenyl]morpholine hydrochloride] | 97 | 100 | 70 | – | – |
| CC1NCCOC1c1cccc(C#N)c1.Cl (stereo not shown) [PAL 786, 3-Methyl-[(3′-Cyano)-2-Phenyl]morpholine hydrochloride] | 99 | 100 | 99 | – | – |
| CC1NCCOC1c1ccc(Cl)c(Cl)c1.Cl (stereo not shown) [PAL 788, 3-Methyl-[(3′,4′-Dichloro)-2-Phenyl]morpholine hydrochloride] | 60 | 98 | – | – | DA releaser activity (in words) (DAT): DA/NE releasers; 5HT uptake inhibition (in words) (SERT [2]): 5HT uptake inhibitors; 5HT Up (%) (SERT [2]; Table 4): 95%; NE releaser activity (in words) (NET): DA/NE releasers |
| CC1NCCOC1c1ccc(F)c(Cl)c1.Cl (stereo not shown) [PAL 821, 3-Methyl-[(3′-Chloro-4′-Fluoro)-2-Phenyl]morpholine hydrochloride] | 94 | 80 | 71 | – | – |
| COc1cccc(C2OCCNC2C)c1.COc1cccc(C2OCCNC2C)c1.O=C(O)/C=C/C(=O)O (stereo not shown) [PAL 823, 3-Methyl-[(3′-Methoxy)-2-Phenyl]morpholine (0.5 fumarate)] | 96 | 86 | 78 | – | – |
| COc1cccc([C@H]2CN[C@@H](C)CO2)c1 [PAL 880, (2S,5S)-2-(3-Methoxy-phenyl)-5-methyl-morpholine] | – | – | – | 56 | – |
| Cc1cccc([C@H]2CN[C@@H](C)CO2)c1 [PAL 886, (2S,5S)-5-Methyl-2-m-tolyl-morpholine] | – | – | – | 86 | – |
| C[C@H]1CO[C@@H](c2cccc(F)c2)CN1 [PAL 890, (2S,5S)-2-(3-Fluoro-phenyl)-5-methyl-morpholine] | – | – | – | 96 | – |
| C[C@H]1CO[C@@H](c2cccc(C(F)(F)F)c2)CN1 [PAL 895, (2S,5S)-5-Methyl-2-(3-trifluoromethyl-phenyl)-morpholine] | – | – | – | 45 | – |
| C[C@H]1CO[C@@H](c2ccc(F)cc2)CN1 [PAL 903, (2S,5S)-2-(4-Fluoro-phenyl)-5-methyl-morpholine] | – | – | – | 65 | – |
| C[C@H]1CO[C@@H](c2ccc(C(F)(F)F)cc2)CN1 [PAL 910, (2S,5S)-5-Methyl-2-(4-trifluoromethyl-phenyl)-morpholine] | – | – | – | 15 | – |
